The assay addresses T1, full-length human GST-tagged PRMT1 (Homo sapiens, UniProt Q99873).
T1 construct: GST-tagged PRMT1; made in house; host or cells: High Five insect cells (baculovirus, pFastBacI)
The assay can be described thus: PRMT1 Biochemical Assay (3H-SAM Flashplate, histone H4 peptide substrate). An excerpt: General Materials. S-adenosylmethionine (SAM), S-adenosylhomocysteine (SAH), bicine, Tween20, dimethylsulfoxide (DMSO), bovine skin gelatin (BSG), and Tris(2-carboxyethyl)phosphine hydrochloride solution (TCEP) were purchased from Sigma-Aldrich at the highest level of purity possible. ^3H-SAM was purchase from American Radiolabeled Chemicals with a specific activity of 80 Ci/mmol. 384-well streptavidin Flashplates were purchased from PerkinElmer.
Protein Expression. Recombinant baculovirus were generated according to Bac-to-Bac kit instructions (Life Technologies). Protein over-expression was accomplished by infecting exponentially growing High Five insect cell culture at 1.5×10^6cell/ml with 1:100 ratio of virus. Infections were carried out at 27° C. for 48 hours, harvested by centrifugation, and stored at −80° C. for purification.
Protein Purification. […] GST-tagged PRMT1 was eluted with 50 mM Tris, 2 mM glutathione, pH 7.8, dialysed in buffer A and concentrated to 1 mg/mL.
General Procedure for PRMT1 Enzyme Assays on Peptide Substrates. The assays were all performed in a buffer consisting of 20 mM Bicine (pH=7.6), 1 mM TCEP, 0.005% BSG, and 0.002% Tween 20, prepared on the day of use. […] DMSO (1 ul) was added to Columns 11, 12, 23, 24, rows A-H for the maximum signal control and 1 ul of SAH, a known product and inhibitor of PRMT1, was added to columns 11, 12, 23, 24, rows I-P for the minimum signal control. A cocktail (40 ul) containing the PRMT1 enzyme was added by Multidrop Combi (Thermo-Fisher). The compounds were allowed to incubate with PRMT1 for 30 min at room temperature, then a cocktail (10 ul) containing SAM and peptide was added to initiate the reaction (final volume=51 ul). […] The assays were stopped by the addition of non-radiolabeled SAM (10 ul) to a final concentration of 300 uM, which dilutes the ^3H-SAM to a level where its incorporation into the peptide substrate is no longer detectable. 50 ul of the reaction in the 384-well polypropylene plate was then transferred to a 384-well Flashplate and the biotinylated peptides were allowed to bind to the streptavidin surface for at least 1 hour before being washed once with 0.1% Tween20 in a Biotek ELx405 plate washer. The plates were then read in a PerkinElmer TopCount plate reader to measure the quantity of ^3H-labeled peptide bound to the Flashplate surface, measured as disintegrations per minute (dpm) or alternatively, referred to as counts per minute (cpm).
Where dpm=disintegrations per minute, cmpd=signal in assay well, and min and max are the respective minimum and maximum signal controls.
Where top and bottom are the normally allowed to float, but may be fixed at 100 or 0 respectively in a 3-parameter fit. The Hill Coefficient normally allowed to float but may also be fixed at 1 in a 3-parameter fit. Y is the % inhibition and X is the compound concentration.

The results in this text go back to patent publication US8952026B2, “PRMT1 inhibitors and uses thereof” (Epizyme, Inc., priority 2013, dated 2015).

The term IC50 denotes the concentration needed to halve the response being measured. A low value points to higher potency.

T1 sequence (Q99873 with tags, fused parts or gaps): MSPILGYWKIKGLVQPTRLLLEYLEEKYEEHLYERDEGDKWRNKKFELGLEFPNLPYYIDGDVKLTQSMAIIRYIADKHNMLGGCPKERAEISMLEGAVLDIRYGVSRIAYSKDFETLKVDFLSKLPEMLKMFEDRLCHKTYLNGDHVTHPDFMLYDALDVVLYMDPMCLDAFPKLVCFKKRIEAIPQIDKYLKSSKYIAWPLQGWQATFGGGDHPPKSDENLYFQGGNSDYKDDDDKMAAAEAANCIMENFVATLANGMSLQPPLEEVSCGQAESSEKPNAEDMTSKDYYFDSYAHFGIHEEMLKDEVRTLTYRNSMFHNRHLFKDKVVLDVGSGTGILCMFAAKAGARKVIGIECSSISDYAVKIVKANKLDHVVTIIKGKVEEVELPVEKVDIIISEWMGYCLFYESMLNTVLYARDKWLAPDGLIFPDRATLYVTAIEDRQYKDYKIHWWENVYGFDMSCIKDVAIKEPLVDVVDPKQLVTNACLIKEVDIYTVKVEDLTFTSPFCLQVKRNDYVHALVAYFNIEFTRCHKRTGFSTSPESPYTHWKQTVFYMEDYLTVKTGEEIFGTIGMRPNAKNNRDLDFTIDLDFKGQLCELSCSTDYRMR

As to `CNCCN(C)Cc1c[nH]nc1-c1cccc(C(F)(F)F)c1` [Compound 1], the IC50 lay within 101 to 1000 nM.

`CN(CCN)Cc1c[nH]nc1-c1cc(C(F)(F)F)cc(C(F)(F)F)c1` [Compound 2] came in with an IC50 of 101 to 1000 nM.

Compound `CN(CCN)Cc1c[nH]nc1-c1ccc(Cl)c(C(F)(F)F)c1` [Compound 3] showed an IC50 of less than 100 nM.

In turn, `CN(CCN)Cc1c[nH]nc1-c1ccc(F)c(C(F)(F)F)c1` [Compound 4] displayed an IC50 of less than 100 nM.

`CC(C)Oc1ccc(-c2n[nH]cc2CN(C)CCN)cc1C(F)(F)F` [Compound 5]: the IC50 was less than 100 nM.

`CC(C)Oc1cc(-c2n[nH]cc2CN(C)CCN)cc(C(F)(F)F)c1` [Compound 6] showed an IC50 of less than 100 nM.

Compound `CN(CCN)Cc1n[nH]cc1-c1cc(C(F)(F)F)cc(C(F)(F)F)c1` [Compound 7] returned an IC50 of 1010 to 3000 nM.

Turning to `CC(C)Oc1ccc(-c2c[nH]nc2CN(C)CCN)cc1C(F)(F)F` [Compound 8], the IC50 is less than 100 nM.

Take `CNCCN(C)Cc1c[nH]nc1-c1ccc(OCCC(C)C)c(C(F)(F)F)c1` [Compound 9]: the IC50 was less than 100 nM.

Turning to `CNCCN(C)Cc1c[nH]nc1-c1ccc(OCC(C)C)c(C(F)(F)F)c1` [Compound 10], the IC50 is less than 100 nM.

On to `CCCOc1ccc(-c2n[nH]cc2CN(C)CCNC)cc1C(F)(F)F` [Compound 11], for which the IC50 is less than 100 nM.

`CNCCN(C)Cc1c[nH]nc1-c1cc(OCCC(C)C)cc(C(F)(F)F)c1` [Compound 12]: the IC50 is less than 100 nM.

`CNCCN(C)Cc1c[nH]nc1-c1ccc(OCCCOC)c(C(F)(F)F)c1` [Compound 13] registered an IC50 of less than 100 nM.

With `CNCCN(C)Cc1c[nH]nc1-c1ccc(OCCOC)c(C(F)(F)F)c1` [Compound 14], the IC50 was less than 100 nM.

In the case of `CNCCN(C)Cc1c[nH]nc1-c1cc(OCC(C)C)cc(C(F)(F)F)c1` [Compound 15], the IC50 is less than 100 nM.

With `CNCCN(C)Cc1c[nH]nc1-c1cc(OCCOC)cc(C(F)(F)F)c1` [Compound 16], the IC50 is less than 100 nM.

Compound `CNCCN(C)Cc1n[nH]cc1-c1ccc(OCCC(C)C)c(C(F)(F)F)c1` [Compound 17] showed an IC50 of less than 100 nM.

`CNCCN(C)Cc1n[nH]cc1-c1ccc(OCC(C)C)c(C(F)(F)F)c1` [Compound 18] returned an IC50 of less than 100 nM.

With `CCCOc1cc(-c2n[nH]cc2CN(C)CCNC)cc(C(F)(F)F)c1` [Compound 19], the IC50 was less than 100 nM.

`CNCCN(C)Cc1n[nH]cc1-c1ccc(OCCCOC)c(C(F)(F)F)c1` [Compound 20] had an IC50 of less than 100 nM.

In turn, `CNCCN(C)Cc1n[nH]cc1-c1ccc(OCCOC)c(C(F)(F)F)c1` [Compound 21] displayed an IC50 of less than 100 nM.

Take `CNCCN(C)Cc1n[nH]cc1-c1cc(OCCC(C)C)cc(C(F)(F)F)c1` [Compound 22]: the 50% inhibitory concentration (IC50) is less than 100 nM.

Compound `CN(CCN)Cc1c[nH]nc1-c1ccc(Oc2ccccc2)c(C(F)(F)F)c1` [Compound 23] yielded an IC50 of less than 100 nM.

As for `CNCCN(C)Cc1c[nH]nc1-c1cc(OCCCOC)cc(C(F)(F)F)c1` [Compound 24], the 50% inhibitory concentration (IC50) is less than 100 nM.

Regarding `CNCCN(C)Cc1c[nH]nc1-c1cc(Cl)c(OC(C)C)c(C(F)(F)F)c1` [Compound 25], the IC50 is less than 100 nM.

In turn, `CN(CCN)Cc1n[nH]cc1-c1ccc(Oc2ccccc2)c(C(F)(F)F)c1` [Compound 26] registered an IC50 of less than 100 nM.

The compound `CNCCN(C)Cc1n[nH]cc1-c1cc(OCCCOC)cc(C(F)(F)F)c1` [Compound 27] showed an IC50 of 101 to 1000 nM.

Compound `CCCOc1ccc(-c2c[nH]nc2CN(C)CCNC)cc1C(F)(F)F` [Compound 28] registered a half-maximal inhibitory concentration (IC50) of less than 100 nM.

In the case of `CNCCN(C)Cc1n[nH]cc1-c1cc(OCC(C)C)cc(C(F)(F)F)c1` [Compound 29], the 50% inhibitory concentration (IC50) is less than 100 nM.

Compound `CNCCN(C)Cc1n[nH]cc1-c1cc(OCCOC)cc(C(F)(F)F)c1` [Compound 30] had a 50% inhibitory concentration (IC50) of 101 to 1000 nM.

The compound `CCCOc1cc(-c2c[nH]nc2CN(C)CCNC)cc(C(F)(F)F)c1` [Compound 31] registered an IC50 of 101 to 1000 nM.

As to `CNCCN(C)Cc1n[nH]cc1-c1cc(C(O)C(C)C)cc(C(F)(F)F)c1` (stereo not shown) [Compound 32], the 50% inhibitory concentration (IC50) lay in the range of 1010 to 3000 nM.

On to `CNCCN(C)Cc1n[nH]cc1-c1cc(Cl)c(OC(C)C)c(C(F)(F)F)c1` [Compound 33], for which the IC50 is less than 100 nM.

The compound `CNCCN(C)Cc1c[nH]nc1-c1ccc(CC(C)C)c(C(F)(F)F)c1` [Compound 34] registered an IC50 of less than 100 nM.

In turn, `CNCCN(C)Cc1c[nH]nc1-c1cc(Cl)c(OCC2CCC2)c(C(F)(F)F)c1` [Compound 35] displayed an IC50 of less than 100 nM.

For `CNCCN(C)Cc1c[nH]nc1-c1cc(Oc2ccccc2)cc(C(F)(F)F)c1` [Compound 36], the IC50 was less than 100 nM.

For the compound `CNCCN(C)Cc1c[nH]nc1-c1cc(OCc2ccccc2)cc(C(F)(F)F)c1` [Compound 37], the IC50 was less than 100 nM.

In turn, `CNCCN(C)Cc1c[nH]nc1-c1cc(Oc2ccncc2)cc(C(F)(F)F)c1` [Compound 38] returned an IC50 of 101 to 1000 nM.

Take `CNCCN(C)Cc1c[nH]nc1-c1cc(OC2CCCCC2)cc(C(F)(F)F)c1` [Compound 39]: the IC50 is less than 100 nM.

As to `CC(C)CCOc1cc(-c2n[nH]cc2CN(C)CCN)cc(C(F)(F)F)c1Cl` [Compound 40], the half-maximal inhibitory concentration (IC50) lay in the range of 101 to 1000 nM.

On to `CNCCN(C)Cc1c[nH]nc1-c1cc(Cl)c(OCC2CC2)c(C(F)(F)F)c1` [Compound 41], for which the IC50 is less than 100 nM.

As for `CNCCN(C)Cc1c[nH]nc1-c1cc(OCC2CCC2)cc(C(F)(F)F)c1` [Compound 44], the IC50 is less than 100 nM.

For `CNCCN(C)Cc1c[nH]nc1-c1cc(OCC2CCCC2)cc(C(F)(F)F)c1` [Compound 45], the IC50 is less than 100 nM.

The compound `CNCCN(C)Cc1c[nH]nc1-c1cc(OCC2CCOCC2)cc(C(F)(F)F)c1` [Compound 46] came in with an IC50 of less than 100 nM.

For `CCC(CC)Oc1cc(-c2n[nH]cc2CN(C)CCNC)cc(C(F)(F)F)c1` [Compound 47], the IC50 is less than 100 nM.

As to `CNCCN(C)Cc1c[nH]nc1-c1cc(OCCCC(F)(F)F)cc(C(F)(F)F)c1` [Compound 48], the half-maximal inhibitory concentration (IC50) is less than 100 nM.

In turn, `CNCCN(C)Cc1c[nH]nc1-c1cc(OCCCC(C)=O)cc(C(F)(F)F)c1` [Compound 49] came in with an IC50 of less than 100 nM.

With `CNCCN(C)Cc1c[nH]nc1-c1cc(OCCc2ccccc2OC)cc(C(F)(F)F)c1` [Compound 50], the IC50 was less than 100 nM.

Compound `CNCCN(C)Cc1c[nH]nc1-c1cc(Oc2cccnc2)cc(C(F)(F)F)c1` [Compound 51] came in with an IC50 of less than 100 nM.

In the case of `CNCCN(C)Cc1c[nH]nc1-c1cc(Oc2ccccn2)cc(C(F)(F)F)c1` [Compound 52], the IC50 is less than 100 nM.

Consider `CNCCN(C)Cc1c[nH]nc1-c1cc(Oc2cncnc2)cc(C(F)(F)F)c1` [Compound 53], for which the half-maximal inhibitory concentration (IC50) was in the range of 101 to 1000 nM.

`CNCCN(C)Cc1c[nH]nc1-c1cc(OCCC(C)C)c(Cl)c(C(F)(F)F)c1` [Compound 54] had an IC50 of 101 to 1000 nM.

Take `CNCCN(C)Cc1c[nH]nc1-c1cc(OCCOC)c(Cl)c(C(F)(F)F)c1` [Compound 55]: the IC50 was in the range of 101 to 1000 nM.

The compound `COCCOc1cc(-c2n[nH]cc2CN(C)CCN)cc(C(F)(F)F)c1Cl` [Compound 56] displayed an IC50 of 101 to 1000 nM.

Compound `CNCCN(C)Cc1c[nH]nc1-c1cc(OCCCOC)c(Cl)c(C(F)(F)F)c1` [Compound 57] returned an IC50 of less than 100 nM.

The compound `CNCCN(C)Cc1c[nH]nc1-c1cc(C)c(OCC2CCC2)c(C(F)(F)F)c1` [Compound 58] gave an IC50 of less than 100 nM.

In turn, `CNCCN(C)Cc1c[nH]nc1-c1cc(C)c(OC2CCOCC2)c(C(F)(F)F)c1` [Compound 59] had an IC50 of less than 100 nM.

`CNCCN(C)Cc1c[nH]nc1-c1cc(OCC(F)(F)F)cc(C(F)(F)F)c1` [Compound 60]: the IC50 is less than 100 nM.

`CNCCN(C)Cc1c[nH]nc1-c1cc(OCCCC(=O)OC)cc(C(F)(F)F)c1` [Compound 61] returned an IC50 of less than 100 nM.

`CNCCN(C)Cc1c[nH]nc1-c1cc(CCC(C)C)cc(C(F)(F)F)c1` [Compound 62] had an IC50 of less than 100 nM.

Turning to `CC(C)CCc1cc(-c2n[nH]cc2CN(C)CCN)cc(C(F)(F)F)c1` [Compound 63], the IC50 is less than 100 nM.

As to `CNCCN(C)Cc1c[nH]nc1-c1cc(OCCOC)c(F)c(C(F)(F)F)c1` [Compound 64], the IC50 is less than 100 nM.

In the case of `CNCCN(C)Cc1c[nH]nc1-c1cc(C)c(OCC2CCOCC2)c(C(F)(F)F)c1` [Compound 65], the IC50 is less than 100 nM.

Turning to `CNCCN(C)Cc1c[nH]nc1-c1cc(C)c(OC2COC2)c(C(F)(F)F)c1` [Compound 66], the IC50 was less than 100 nM.
